Data taken from ChEMBL document CHEMBL3992566, “Development and Biological Evaluation of a Photoactivatable Small Molecule Microtubule-Targeting Agent” (ACS Med Chem Lett, 2017).
Blank lines part the entries; values can stand above or below the molecule they belong to. Active and inactive are the calls of the source. The calls are words filed in the database; no cut-off is given here.

Columns and labels:
Sus scrofa [1] = species: Sus scrofa; assay: Inhibition of colchicine binding to porcine brain tubulin after 90 mins by fluorescence assay
[2] = Cytotoxicity against patient-derived RN1 cells assessed as reduction in cell viability after 72 hrs by Cell-Titer Blue assay; type: functional, cell-based; conditions: Homo sapiens, RN1, 72 h
[3] = Induction of apoptosis in patient-derived RN1 cells at 5 uM after 48 hrs by Annexin V staining based assay (reference value: 8.1%); type: functional, Homo sapiens
U-251 [4] = assay: Phototoxicity against human U251 cells assessed as reduction in cell viability under UV irradiation of 1800 mW for 1 min measured after 72 hrs by Cell-Titer Blue assay; type: functional, cell-based; conditions: U-251, light or radiation study
[5] = Photostability of the compound at 1 mM under UV irradiation of 5400 mW after 20 mins by HPLC-MS analysis
Sus scrofa [6] = species: Sus scrofa; assay: Inhibition of porcine brain tubulin polymerization at 50 uM by fluorescence assay
Homo sapiens [7] = species: Homo sapiens; assay: Disruption of microtubule organization in human U251 cells assessed as changes in cell morphology at 5 uM after 24 hrs by DAPI staining based immunofluorescence assay
[8] = Phototoxicity against patient-derived RN1 cells assessed as reduction in cell viability under UV irradiation of 1800 mW for 30 secs measured after 72 hrs by Cell-Titer Blue assay; type: functional, cell-based; conditions: Homo sapiens, RN1, light or radiation study
U-251 [9] = assay: Cytotoxicity against human U251 cells assessed as reduction in cell viability after 72 hrs by Cell-Titer Blue assay; type: functional, cell-based; conditions: U-251, 72 h
Homo sapiens [10] = species: Homo sapiens; assay: Disruption of microtubule organization in human U251 cells at 5 uM after 24 hrs by DAPI staining based immunofluorescence assay; type: cell-based
Sus scrofa [11] = species: Sus scrofa; assay: Inhibition of porcine brain tubulin polymerization at 3 uM by fluorescence assay
[12] = Drug metabolism in human U251 cells assessed as DMNB release up to 100 uM under UV irradiation of 1800 mW for 1 min measured after 72 hrs; type: ADME, cell-based; conditions: u-251, 72 h
U-251 [13] = assay: Phototoxicity against human U251 cells assessed as reduction in cell viability up to 100 uM under UV irradiation of 1800 mW for 1 min measured after 72 hrs by Cell-Titer Blue assay; type: functional, cell-based
U-251 [14] = assay: Cytotoxicity against human U251 cells assessed as reduction in cell viability at >40 uM after 72 hrs by Cell-Titer Blue assay; type: functional, cell-based
Sus scrofa [15] = species: Sus scrofa; assay: Inhibition of colchicine binding to porcine brain tubulin up to 60 uM after 90 mins by fluorescence assay
[16] = Induction of apoptosis in patient-derived RN1 cells at 5 uM after 48 hrs under dark condition by Annexin V staining based assay (reference value: 8.1%); type: cell-based; conditions: human, rn1, 48 h
[17] = Photoactivation of prodrug assessed as time required to release maximum concentration of 4-(4-(2-fluoropyridin-3-yl)phenyl)-N-(4-hydroxyphenyl)butanamide at 1 mM under UV irradiation of 5400 mW by HPLC-MS analysis
[18] = Dark toxicity against patient-derived RN1 cells assessed as reduction in cell viability after 72 hrs by Cell-Titer Blue assay; type: cell-based; conditions: human
[19] = Disruption of microtubule organization in human U251 cells at 5 uM after 24 hrs under dark condition by DAPI staining based immunofluorescence assay; type: ADME, cell-based
[20] = Disruption of microtubule organization in human U251 cells assessed as changes in cell morphology at 5 uM after 24 hrs under dark condition by DAPI staining based immunofluorescence assay; type: ADME
[21] = Effect on colchicine binding to porcine brain tubulin up to 60 uM after 90 mins under dark condition by fluorescence assay; type: ADME, Sus scrofa; conditions: pig, 1.5 h
[22] = Induction of apoptosis in patient-derived RN1 cells assessed as early apoptotic cells at 5 uM after 48 hrs under UV irradiation of 1800 mW for 30 secs by Annexin V staining based assay relative to control; type: functional, Homo sapiens
[23] = Effect on kinetics of porcine brain tubulin polymerization at 50 uM under dark condition by fluorescence assay; type: ADME, Sus scrofa; conditions: pig
[24] = Induction of apoptosis in patient-derived RN1 cells assessed as late apoptotic cells at 5 uM after 48 hrs under UV irradiation of 1800 mW for 30 secs by Annexin V staining based assay relative to control; type: functional, Homo sapiens
[25] = Induction of apoptosis in patient-derived RN1 cells assessed as live cells at 5 uM after 48 hrs under UV irradiation of 1800 mW for 30 secs by Annexin V staining based assay relative to control; type: functional, Homo sapiens
Sus scrofa [26] = species: Sus scrofa; assay: Inhibition of porcine brain tubulin polymerization at 50 uM under UV irradiation of 1800 mW for 5 mins by fluorescence assay
[27] = Dark toxicity against human U251 cells assessed as reduction in cell viability after 72 hrs by Cell-Titer Blue assay; type: cell-based, U-251
[28] = Induction of apoptosis in patient-derived RN1 cells assessed as necrotic cells at 5 uM after 48 hrs under UV irradiation of 1800 mW for 30 secs by Annexin V staining based assay relative to control; type: functional, Homo sapiens
[29] = Photoactivation of prodrug assessed as decay time constant for 4-(4-(2-fluoropyridin-3-yl)phenyl)-N-(4-hydroxyphenyl)butanamide release at 1 mM under UV irradiation of 5400 mW after 1 min by HPLC-MS analysis
Homo sapiens [30] = species: Homo sapiens; assay: Disruption of microtubule organization in human U251 cells assessed as cell rounding at 5 uM after 24 hrs under UV irradiation of 1800 mW for 5 mins by DAPI staining based immunofluorescence assay
Homo sapiens [31] = species: Homo sapiens; assay: Disruption of microtubule organization in human U251 cells at 5 uM after 24 hrs under UV irradiation of 1800 mW for 5 mins by DAPI staining based immunofluorescence assay; type: cell-based
[32] = Photoactivation of prodrug assessed as 4-(4-(2-fluoropyridin-3-yl)phenyl)-N-(4-hydroxyphenyl)butanamide release at 1 mM under UV irradiation of 5400 mW after 1 min by HPLC-MS analysis

inhibition (Sus scrofa [1]): Dose-dependent effect
inhibition (Sus scrofa [6]): Active
Compound: O=C(CCCc1ccc(-c2cccnc2F)cc1)Nc1ccc(O)cc1
EC50 [2]: 300 nM
Activity [3]: 47.8%
EC50 (U-251 [4]): 1400 nM
Stability [5]: Stable
Activity (Homo sapiens [7]): Active
EC50 [8]: 700 nM
EC50 (U-251 [9]): 1300 nM
Activity (Homo sapiens [10]): Active

Drug metabolism [12]: Metabolite_Detected
Compound: COc1cc(COC(=O)C(C)NC(=O)OC(C)(C)C)c([N+](=O)[O-])cc1OC (stereo unspecified)
Activity (U-251 [13]): inactive

Activity [19]: Not Active
Activity [20]: Not Active
Activity [21]: Not Active
Activity [23]: Not Active
inhibition (Sus scrofa [26]): Active
Compound: COc1cc(COc2ccc(NC(=O)CCCc3ccc(-c4cccnc4F)cc3)cc2)c([N+](=O)[O-])cc1OC
Activity [16]: 12.6%
TIME [17]: > 0.0333 h
EC50 at 72 h [18]: 37400 nM
EC50 (U-251 [4]): 2100 nM
Activity [22]: 20.75%
Activity [24]: 41.3%
Activity [25]: 36.95%
EC50 at 72 h [27]: 72000 nM
Activity [28]: 0.5%
EC50 [8]: 1200 nM
TIME [29]: 0.0101 h
Activity (Homo sapiens [30]): Active
Activity (Homo sapiens [31]): Active
Drug metabolism [32]: 80%

More lines, now with the values behind:

Compound: CC(=O)O[C@H]1C(=O)[C@@]2(C)[C@H]([C@H](OC(=O)c3ccccc3)[C@]3(O)C[C@H](OC(=O)[C@H](O)[C@@H](NC(=O)c4ccccc4)c4ccccc4)C(C)=C1C3(C)C)[C@]1(OC(C)=O)CO[C@@H]1C[C@@H]2O
inhibition (Sus scrofa [11]): inactive

Compound: O=C(CCCc1ccc(-c2cccnc2F)cc1)Nc1ccc(OCc2ccccc2)cc1
Activity (U-251 [14]): inactive

Compound: CC[C@]1(O)C[C@@H]2CN(CCc3c([nH]c4ccccc34)[C@@](C(=O)OC)(c3cc4c(cc3OC)N(C)[C@H]3[C@@](O)(C(=O)OC)[C@H](OC(C)=O)[C@]5(CC)C=CCN6CC[C@]43[C@@H]65)C2)C1
inhibition (Sus scrofa [11]): Active
inhibition (Sus scrofa [15]): inactive

Compound: COC(=O)Nc1nc2cc(C(=O)c3cccs3)ccc2[nH]1
inhibition (Sus scrofa [15]): Active
